Measured values taken from patent US20220387414A1, “TREATING LIVER DISORDERS” (Terns Pharmaceuticals Inc., priority 2019, published 2022).
Values joined by “and” are separate entries in the source; they are usually repeats but may differ in a detail not shown here. Identical values can stand only once.

Assays:
[1] = Clinical 7-day study, safety and pruritus; assay type: in vivo, human; details: healthy volunteers
Method: (§1) Second Study. […] 10-14, 2019.
Safety was assessed during dosing and for 10 (±1) days after dosing.

[2] = Tissue distribution of radiolabeled (14C) Compound I after oral dose; assay type: in vivo; details: Long-Evans rats, oral 5 mg/kg (100 μCi/kg), up to 168 hours
[3] = In vitro metabolic stability in cryopreserved hepatocytes (human); assay type: in vitro ADME; details: 0.5×10^6 cells/mL, 37° C.
Description: (§2) 283, no. 1, pp. 46-58 (1997).

[4] = In vitro metabolic stability in cryopreserved hepatocytes (rat); assay type: in vitro ADME; details: Sprague-Dawley Rat hepatocytes, 0.5×10^6 cells/mL, 37° C.
Description: as §2

[5] = Clinical 7-day study, serum LDL; assay type: in vivo, human; details: healthy subjects, 25, 75, or 150 mg QD for 7 days
Description: (§3) Serum levels of Compound I in the subjects were periodically measured.
Serum levels of low-density lipoprotein (LDL) in the subjects were periodically measured.

FGF-19 = test: Clinical 7-day study, serum FGF-19; assay type: in vivo, human; details: healthy subjects, four hours after dosing on Day 7; dosing groups not assigned in the text
Description: as §3
Serum levels of FGF-19 in the subjects were periodically measured. FIGS. 17A and 17B show changes of mean serum levels of FGF-19 from the pre-dose baseline in different dosing groups on Day 1 and Day 7, respectively.

[6] = tested on: 7-alpha-hydroxy-4-cholesten-3-one (7α-C4); test: Clinical 7-day study, serum 7α-C4 suppression; assay type: in vivo, human; details: healthy subjects; for maximum suppression of serum 7α-C4 levels (reduction): Day 7, six hours after dosing
Method: as §1
Serum levels of 7-alpha-hydroxy-4-cholesten-3-one (7α-C4) in the subjects were periodically measured. FIGS. 16A and 16B show changes of mean serum levels of 7α-C4 from the pre-dose baseline in different dosing groups on Day 1 and Day 7, respectively. […] On Day 7, maximum suppression of serum 7α-C4 levels was observed six hours after dosing corresponding to a reduction of 74%, 82%, and 91% in the 25, 75, and 150 mg dosing groups, respectively.

[7] = tested on: FXR-regulated gene expression in liver and ileum; test: RT-qPCR of FXR-regulated gene expression in liver and ileum after single oral dose; assay type: in vivo; details: mice, single oral dose 10 mg/kg, 6 hours after dose
Description: For RT-qPCR, gene-specific primers were used to quantitate FXR-regulated gene expression in liver and ileum using the 2-ddCT method. Results are shown in FIG. 6 (data presented as mean±SEM; **** indicates p<0.0001 and * indicates p<0.05 versus vehicle, with statistics determined by one-way ANOVA followed by Tukey).

[8] = tested on: differentially expressed genes and pathways in liver; test: RNAseq of liver after single oral dose; details: mice liver, 6 hours; for number of differentially expressed genes modulated vs vehicle: fold change≥1.5, q-value<0.05; for number of global pathways enriched: p<0.05
Method: For RNAseq analysis, mRNA was extracted from total liver and sequenced using standard Illumina library preparation and sequencing protocols. Differentially expressed genes (DEG) were determined using RSEM and edgeR software packages and analyzed using Advaita Bio's iPathwayGuide software.

[9] = Clinical 7-day study, serum exposure of Compound I; assay type: in vivo, human; details: healthy subjects, each 24-hour dosing period, all dosed groups
Description: as §1, §3

[10] = PK profile after oral dosing in monkeys; assay type: in vivo; details: cynomolgus monkeys, oral 1 mg/kg for 7 consecutive days
Method: (§4) The pharmacodynamics were measured as a function of 7-alpha-hydroxy-4-cholesten-3-one (7α-C4) reduction (FIG. 4), as quantified by LC-MS/MS. Pharmacokinetics data is presented in Table 3, and were determined by non-compartmental analysis.

[11] = In vitro metabolic stability in cryopreserved hepatocytes (dog); assay type: in vitro ADME; details: Beagle Dog hepatocytes, 0.5×10^6 cells/mL, 37° C.
Description: as §2

[12] = In vitro metabolic stability in cryopreserved hepatocytes (monkey); assay type: in vitro ADME; details: Cynomolgus Monkey hepatocytes, 0.5×10^6 cells/mL, 37° C.
Description: as §2

[13] = tested on: FXR-regulated, inflammatory and fibrosis gene expression in the liver; test: Liver gene expression in NASH mouse model (RT-qPCR, RNA-seq); assay type: in vivo, C57/BL6J mice; details: 10, 30, or 100 mg/kg daily oral, 28 days
[14] = tested on: NASH induced by a high fat diet in combination with CCl4; test: Mouse model of NASH (high fat diet in combination with CCl4); assay type: in vivo, C57/BL6J mice; details: 28 days
Method: Hematoxylin & Eosin (H&E) and Sirius Red histological staining of liver tissue was used to quantitate NAFLD activity score (NAS), steatosis, ballooning, inflammation and fibrosis.
NAS is calculated based upon liver steatosis, inflammation, and ballooning and was determined by analysis of liver tissue histology using H&E stain. Specifically, inflammation score was calculated based upon H&E staining: Score 0, none; 1, <2 foci per 200X field; 2, 2-4 foci per 200X field; 3, >4 foci per 200X field. […] Hepatocellular ballooning is a form of liver cell injury associated with cell swelling and is also measured by H&E stained liver sections. The ballooning score is calculated as follows: 0-no hepatocyte ballooning; 1-few ballooning hepatocytes; 2-many hepatocytes with prominent ballooning.
Liver fibrosis was quantified by histological analysis of the percentage of Sirius Red-positive liver sections.

[15] = In vitro metabolic stability in cryopreserved hepatocytes (mouse); assay type: in vitro ADME; details: 0.5×10^6 cells/mL, 37° C.
Description: as §2

[16] = Pharmacokinetics assay, IV and oral, monkey; assay type: in vivo, cynomolgus monkeys; details: plasma; Cynomolgus Monkey, oral 5 mg/kg, IV 0.3 mg/kg
Description: Results are shown in FIG. 1A (IV administration) and FIG. 1B (oral administration), and in Table 2. […] Smaller Vdss in monkeys is correlated with higher plasma protein binding.

[17] = tested on: 7-alpha-hydroxy-4-cholesten-3-one (7α-C4); test: PD profile (7α-C4 reduction) after oral dosing in monkeys; assay type: in vivo; details: cynomolgus monkeys, oral 1 mg/kg for 7 consecutive days
Method: as §4

[18] = longer term studies; cited from earlier work
[19] = 10, 30, and 100 mg/kg daily oral
[20] = 10, 30, or 100 mg/kg daily oral

Cn1cc(C(=O)O)c2ccc(N3CCC(OCc4c(-c5c(Cl)cccc5Cl)noc4C4CC4)CC3)cc21 [Compound I, 6-{4-[5-cyclopropyl-3-(2,6-dichloro-phenyl)-isoxazol-4-ylmethoxy]-piperidin-1-yl}-1-methyl-1H-indole-3-carboxylic acid]
reports of pruritus ([1]; all doses (25, 75, 150 mg QD for 7 days)): no reports of pruritus | safety and tolerability ([1]; all doses, during dosing and for 10 (±1) days after): safe and well tolerated | tissues with the most radioactive material [2]: Liver, small intestine, and cecum | half-life at 1 µM [3]: 1.4 ± 0.108 h | half-life at 1 µM [4]: 2.18 ± 0.0685 h | serum LDL changes above baseline [5]: minimal | maximum increases from baseline in serum FGF 19 levels (FGF-19): 718% and 486% and 454% | maximum suppression of serum 7α-C4 levels (reduction) ([6]; 25 mg QD): 74% | maximum suppression of serum 7α-C4 levels (reduction) ([6]; 75 mg QD): 82% | maximum suppression of serum 7α-C4 levels (reduction) ([6]; 150 mg QD): 91% | suppression of serum 7α-C4 levels after a single dose ([6]; Day 1, all dosed groups (25, 75, 150 mg)): partial suppression | induction of FXR-specific genes (liver SHP1, liver OSTb, ileum SHP1, ileum FGF15) [7]: preferentially induces FXR-specific genes in the liver | number of differentially expressed genes modulated vs vehicle ([8]; single oral 10 mg/kg): 500 genes | number of global pathways enriched ([8]; single oral 10 mg/kg): 32 pathways | mean serum levels of Compound I versus its EC50 [9]: generally did not exceed the EC50 | plasma exposure on day 1 and day 7 [10]: comparable | half-life at 1 µM [11]: 2.1 ± 0.258 h | half-life at 1 µM [12]: 1.06 ± 0.013 h | collagen, type 1, alpha 1 expression in the liver compared to control NASH mice [13]: decreased | ballooning score compared to untreated NASH mice [14, 19]: significantly reduced | inflammation score compared to untreated NASH mice [14, 19]: significantly reduced | steatosis score compared to untreated NASH mice [14, 19]: significantly reduced | NAFLD Activity Score (NAS) compared to untreated NASH mice [14, 20]: significantly lower | liver fibrosis (Sirius Red-positive area) compared to untreated NASH control [14, 20]: statistically significant reduced fibrosis | half-life at 1 µM [15]: 0.727 ± 0.0472 h | bioavailability [16]: 18% | suppression of the pharmacodynamics biomarker 7α-C4 [17]: sustained suppression

CC[C@H]1[C@@H](O)[C@@H]2[C@H](CC[C@]3(C)[C@@H]([C@H](C)CCC(=O)O)CC[C@@H]23)[C@@]2(C)CC[C@@H](O)C[C@@H]12 [OCA, obeticholic acid, reference compound]
pruritus [18]: known to result in pruritus | number of differentially expressed genes modulated vs vehicle ([8]; single oral 30 mg/kg): 44 genes | number of global pathways enriched ([8]; single oral 30 mg/kg): 6 pathways

O=C(O)c1ccnc(N2CC(O)(c3ccc(OCc4c(-c5c(Cl)cccc5Cl)noc4C4CC4)cc3Cl)C2)c1 [cilofexor]
pruritus [18]: known to result in pruritus

O=C(O)c1cc(F)c2nc(N3[C@@H]4CC[C@H]3C[C@@H](OCc3c(-c5ccccc5OC(F)(F)F)noc3C3CC3)C4)sc2c1 [tropifexor]
pruritus [18]: known to result in pruritus
